Inconclusive results and toxic doses are left out. No stated cut-off is given here; in the data, active means T/C of 150% or more; inactive means T/C below 125%.
Test system: L1210 leukemia ip in BDF1 mice, survival T/C
Assay: NCI In Vivo Anticancer Drug Screen. Data for tumor model L1210 Leukemia (intraperitoneal) in B6D2F1 (BDF1) mice
Details: endpoint: mean survival time, higher = longer survival
Method in brief: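 Mice bearing the transplanted tumor received compound or vehicle. Survival of the treated group was divided by that of the vehicle-treated control group to give the ratio.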

[1] = dose: 100.0 mg/kg/injection, schedule: Q01DX009 (ip), vehicle: Klucel (hydroxypropylcellulose) (HPC)
[2] = dose: 100.0 mg/kg/injection, schedule: Q04DX002 (ip), vehicle: Klucel (hydroxypropylcellulose) (HPC)
[3] = dose: 200.0 mg/kg/injection, schedule: Q01DX009 (ip), vehicle: Klucel (hydroxypropylcellulose) (HPC)
[4] = dose: 200.0 mg/kg/injection, schedule: Q04DX002 (ip), vehicle: Klucel (hydroxypropylcellulose) (HPC)
[5] = dose: 400.0 mg/kg/injection, schedule: Q01DX009 (ip), vehicle: Klucel (hydroxypropylcellulose) (HPC)
[6] = dose: 400.0 mg/kg/injection, schedule: Q04DX002 (ip), vehicle: Klucel (hydroxypropylcellulose) (HPC)
[7] = dose: 100.0 mg/kg/injection, schedule: Q04DX003 (ip), vehicle: saline with Tween-80
[8] = dose: 200.0 mg/kg/injection, schedule: Q04DX003 (ip), vehicle: saline with Tween-80
[9] = dose: 400.0 mg/kg/injection, schedule: Q04DX003 (ip), vehicle: saline with Tween-80
[10] = dose: 100.0 mg/kg/injection, schedule: Q04DX003 (ip), vehicle: Klucel (hydroxypropylcellulose) (HPC)
[11] = dose: 200.0 mg/kg/injection, schedule: Q04DX003 (ip), vehicle: Klucel (hydroxypropylcellulose) (HPC)
[12] = dose: 400.0 mg/kg/injection, schedule: Q04DX003 (ip), vehicle: Klucel (hydroxypropylcellulose) (HPC)
[13] = dose: 75.0 mg/kg/injection, schedule: Q01DX001 (ip), vehicle: saline

Measured: T/C

NC(=O)Nc1ccccc1
inactive: [1] 103 % of control | [2] 109 % of control | [3] 106 % of control | [4] 109 % of control | [5] 103 % of control | [6] 88 % of control

CCCCCCCS(=O)(=O)CCCCCCC
inactive: dose: 25.6 mg/kg/injection, schedule: Q04DX002 (ip), vehicle: saline with Tween-80 95 % of control | dose: 64.0 mg/kg/injection, schedule: Q04DX002 (ip), vehicle: saline with Tween-80 91 % of control | dose: 100.0 mg/kg/injection, schedule: Q01DX009 (ip), vehicle: saline with Tween-80 94 % of control | [7] 93 % of control | dose: 160.0 mg/kg/injection, schedule: Q04DX002 (ip), vehicle: saline with Tween-80 91 % of control | dose: 200.0 mg/kg/injection, schedule: Q01DX009 (ip), vehicle: saline with Tween-80 94 % of control | [8] 95 % of control | dose: 400.0 mg/kg/injection, schedule: Q01DX009 (ip), vehicle: saline with Tween-80 98 % of control | dose: 400.0 mg/kg/injection, schedule: Q04DX002 (ip), vehicle: saline with Tween-80 95 % of control | [9] 90 % of control

CC(c1ccccc1)[P+](c1ccccc1)(c1ccccc1)c1ccccc1 (configuration not stated)
inactive: dose: 12.5 mg/kg/injection, schedule: Q04DX002 (ip), vehicle: saline 106 % of control | dose: 25.0 mg/kg/injection, schedule: Q04DX002 (ip), vehicle: saline 111 % of control | dose: 50.0 mg/kg/injection, schedule: Q04DX002 (ip), vehicle: saline 97 % of control

c1ccc2c(c1)-c1cccc3cccc-2c13
inactive: [1] 95 % of control | [10] 95 % of control | [3] 95 % of control | [11] 95 % of control | [5] 101 % of control | [12] 101 % of control

Cc1cc(C)c(OC2=C(c3c(C)cc(C)cc3C)C(=O)c3ccccc32)c(C)c1
inactive: dose: 100.0 mg/kg/injection, schedule: Q01DX001 (ip), vehicle: carboxymethylcellulose (CMC) 91 % of control | dose: 200.0 mg/kg/injection, schedule: Q01DX001 (ip), vehicle: carboxymethylcellulose (CMC) 89 % of control | dose: 400.0 mg/kg/injection, schedule: Q01DX001 (ip), vehicle: carboxymethylcellulose (CMC) 96 % of control

CN(N=O)C(=O)NCCc1ccccc1
inactive: dose: 6.25 mg/kg/injection, schedule: Q01DX Z (ip), vehicle: carboxymethylcellulose (CMC) 101 % of control | dose: 12.5 mg/kg/injection, schedule: Q01DX Z (ip), vehicle: carboxymethylcellulose (CMC) 112 % of control | dose: 25.0 mg/kg/injection, schedule: Q01DX Z (ip), vehicle: carboxymethylcellulose (CMC) 93 % of control | dose: 50.0 mg/kg/injection, schedule: Q01DX Z (ip), vehicle: carboxymethylcellulose (CMC) 98 % of control | dose: 100.0 mg/kg/injection, schedule: Q01DX Z (ip), vehicle: carboxymethylcellulose (CMC) 109 % of control | dose: 200.0 mg/kg/injection, schedule: Q01DX Z (ip), vehicle: carboxymethylcellulose (CMC) 98 % of control | dose: 400.0 mg/kg/injection, schedule: Q01DX Z (ip), vehicle: carboxymethylcellulose (CMC) 108 % of control

CCCCCCCCCCCS(=O)(=O)C(CCOS(C)(=O)=O)COS(C)(=O)=O (configuration not stated)
inactive: [1] 93 % of control | [10] 100 % of control | [3] 95 % of control | [11] 98 % of control | [12] 96 % of control

OC(c1ccccc1)(c1ccccc1)C1c2ccccc2-c2[nH]c3ccccc3c21 (configuration not stated)
inactive: dose: 200.0 mg/kg/injection, schedule: Q01DX001 (ip), vehicle: saline with Tween-80 91 % of control

NS(=O)(=O)c1cc(Br)c2c(c1)S(=O)(=O)NCN2
inactive: dose: 65.0 mg/kg/injection, schedule: Q01DX009 (ip), vehicle: Klucel (hydroxypropylcellulose) (HPC) 102 % of control | [13] 106 % of control | dose: 135.0 mg/kg/injection, schedule: Q01DX009 (ip), vehicle: Klucel (hydroxypropylcellulose) (HPC) 88 % of control | dose: 150.0 mg/kg/injection, schedule: Q01DX001 (ip), vehicle: saline 96 % of control | [3] 100 % of control | dose: 300.0 mg/kg/injection, schedule: Q01DX009 (ip), vehicle: Klucel (hydroxypropylcellulose) (HPC) 97 % of control | dose: 600.0 mg/kg/injection, schedule: Q01DX009 (ip), vehicle: Klucel (hydroxypropylcellulose) (HPC) 88 % of control

CN(CCO)C(=O)c1ccc([N+](=O)[O-])cc1
inactive: [10] 91 % of control | [11] 88 % of control | [12] 107 % of control

CC(Cc1cc(C)nc(NC#N)n1)=Nc1ccccc1
inactive: [2] 100 % of control | [4] 92 % of control | [6] 100 % of control

COC(/C=C\C(OC)OC)OC
inactive: dose: 12.5 mg/kg/injection, schedule: Q04DX003 (ip), vehicle: saline 106 % of control | dose: 25.0 mg/kg/injection, schedule: Q04DX003 (ip), vehicle: saline 101 % of control | dose: 50.0 mg/kg/injection, schedule: Q04DX003 (ip), vehicle: saline 101 % of control | [1] 98 % of control | [3] 96 % of control | [5] 96 % of control

CC12C=CC(=O)C=C1CCC1C3CCC(O)(C(=O)CO)C3(C)CC(O)C12F (configuration not stated)
inactive: dose: 25.0 mg/kg/injection, schedule: Q04DX003 (sc), vehicle: steriod suspending solution 108 % of control | dose: 50.0 mg/kg/injection, schedule: Q04DX003 (sc), vehicle: steriod suspending solution 106 % of control | dose: 100.0 mg/kg/injection, schedule: Q04DX003 (sc), vehicle: steriod suspending solution 123 % of control | dose: 150.0 mg/kg/injection, schedule: Q04DX003 (sc), vehicle: steriod suspending solution 100 % of control | dose: 225.0 mg/kg/injection, schedule: Q04DX003 (sc), vehicle: steriod suspending solution 111 % of control | dose: 335.0 mg/kg/injection, schedule: Q04DX003 (sc), vehicle: steriod suspending solution 105 % of control

Cc1cc(S(=O)(=O)c2cc(C)c(O)c(C(N)=O)c2)cc(C(N)=O)c1O
inactive: dose: 100.0 mg/kg/injection, schedule: Q04DX002 (ip), vehicle: carboxymethylcellulose (CMC) 95 % of control | dose: 200.0 mg/kg/injection, schedule: Q04DX002 (ip), vehicle: carboxymethylcellulose (CMC) 103 % of control | dose: 400.0 mg/kg/injection, schedule: Q04DX002 (ip), vehicle: carboxymethylcellulose (CMC) 98 % of control

Cc1c(C)c2c(c(C)c1O)CCC(C)(C)O2
inactive: dose: 50.0 mg/kg/injection, schedule: Q01DX009 (ip), vehicle: Klucel (hydroxypropylcellulose) (HPC) 97 % of control | [1] 100 % of control | [3] 103 % of control

O=C1CCC2=C(CCCCCC2)N1c1ccccc1
inactive: [7] 110 % of control | [8] 110 % of control | [9] 98 % of control

O=C(CCCC(=O)N/N=C/c1ccc2c(c1)OCO2)N/N=C\c1ccc2c(c1)OCO2
inactive: dose: 50.0 mg/kg/injection, schedule: Q01DX001 (ip), vehicle: saline 103 % of control | dose: 100.0 mg/kg/injection, schedule: Q01DX001 (ip), vehicle: saline 103 % of control | dose: 200.0 mg/kg/injection, schedule: Q01DX001 (ip), vehicle: saline 106 % of control | dose: 400.0 mg/kg/injection, schedule: Q01DX001 (ip), vehicle: saline 100 % of control

CC[S+](CC)CC
inactive: dose: 100.0 mg/kg/injection, schedule: Q04DX003 (ip), vehicle: saline 95 % of control | dose: 200.0 mg/kg/injection, schedule: Q04DX003 (ip), vehicle: saline 95 % of control

O=Nc1ccc(-[n+]2ccccc2)c([N+](=O)[O-])c1
inactive: [13] 98 % of control
